“And” between values parts separate entries of the source, which are not always exact repeats. Identical values can stand only once. “Also recorded” adds a separate entry of the source. Like-named read-outs stand apart in the source and are kept apart here.
What was measured:
α2AR = biological target: T1, α2AR (Homo sapiens, UniProt P08913)
T1 sequence (P08913 1-465): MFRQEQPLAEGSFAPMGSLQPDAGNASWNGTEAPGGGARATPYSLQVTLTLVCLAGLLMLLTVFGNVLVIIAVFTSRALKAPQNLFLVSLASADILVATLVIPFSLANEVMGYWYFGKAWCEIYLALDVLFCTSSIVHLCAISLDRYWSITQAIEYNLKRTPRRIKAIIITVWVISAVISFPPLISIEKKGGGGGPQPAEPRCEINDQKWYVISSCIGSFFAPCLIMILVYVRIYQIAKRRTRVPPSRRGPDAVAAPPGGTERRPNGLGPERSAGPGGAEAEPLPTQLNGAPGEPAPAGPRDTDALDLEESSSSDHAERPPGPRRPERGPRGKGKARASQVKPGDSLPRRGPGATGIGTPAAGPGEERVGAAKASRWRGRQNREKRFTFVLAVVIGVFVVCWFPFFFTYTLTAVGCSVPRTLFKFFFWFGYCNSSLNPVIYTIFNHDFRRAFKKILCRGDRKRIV

human α2BRs = human α2BRs (Homo sapiens, UniProt P18089); conditions: 10 μM screen
human α2BRs, sequence (P18089 whole entry): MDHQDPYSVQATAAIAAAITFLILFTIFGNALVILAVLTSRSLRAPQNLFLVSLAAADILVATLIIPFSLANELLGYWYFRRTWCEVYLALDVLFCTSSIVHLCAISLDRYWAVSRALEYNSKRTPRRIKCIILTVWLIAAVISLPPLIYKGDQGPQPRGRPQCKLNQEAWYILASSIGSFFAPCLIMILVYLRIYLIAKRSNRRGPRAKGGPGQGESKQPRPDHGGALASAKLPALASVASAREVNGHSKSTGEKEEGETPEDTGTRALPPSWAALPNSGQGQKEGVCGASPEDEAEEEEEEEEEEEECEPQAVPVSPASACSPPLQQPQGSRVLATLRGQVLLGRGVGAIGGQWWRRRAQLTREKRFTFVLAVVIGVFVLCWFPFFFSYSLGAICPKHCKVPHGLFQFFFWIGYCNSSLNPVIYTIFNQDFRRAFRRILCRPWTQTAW

rat α2AR = biological target: T2, rat α2AR (Rattus norvegicus, UniProt P22909); conditions: agonist mode; HEK293 cells; Figure S2
T2 sequence (P22909 1-465): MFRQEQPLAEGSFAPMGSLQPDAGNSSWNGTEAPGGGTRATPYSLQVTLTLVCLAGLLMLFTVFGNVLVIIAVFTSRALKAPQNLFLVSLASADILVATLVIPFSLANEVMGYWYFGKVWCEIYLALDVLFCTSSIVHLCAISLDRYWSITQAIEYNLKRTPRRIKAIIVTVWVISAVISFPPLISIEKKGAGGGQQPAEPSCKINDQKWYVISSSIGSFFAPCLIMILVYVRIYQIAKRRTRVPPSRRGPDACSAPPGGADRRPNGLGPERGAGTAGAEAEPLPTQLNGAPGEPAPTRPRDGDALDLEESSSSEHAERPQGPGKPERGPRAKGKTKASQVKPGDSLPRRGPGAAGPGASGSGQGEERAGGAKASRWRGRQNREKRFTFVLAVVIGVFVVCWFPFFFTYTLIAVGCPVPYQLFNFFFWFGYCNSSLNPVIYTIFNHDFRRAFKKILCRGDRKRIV

α1AR = biological target: T3, α1AR (Homo sapiens, UniProt P35348)
T3 sequence (P35348 1-466): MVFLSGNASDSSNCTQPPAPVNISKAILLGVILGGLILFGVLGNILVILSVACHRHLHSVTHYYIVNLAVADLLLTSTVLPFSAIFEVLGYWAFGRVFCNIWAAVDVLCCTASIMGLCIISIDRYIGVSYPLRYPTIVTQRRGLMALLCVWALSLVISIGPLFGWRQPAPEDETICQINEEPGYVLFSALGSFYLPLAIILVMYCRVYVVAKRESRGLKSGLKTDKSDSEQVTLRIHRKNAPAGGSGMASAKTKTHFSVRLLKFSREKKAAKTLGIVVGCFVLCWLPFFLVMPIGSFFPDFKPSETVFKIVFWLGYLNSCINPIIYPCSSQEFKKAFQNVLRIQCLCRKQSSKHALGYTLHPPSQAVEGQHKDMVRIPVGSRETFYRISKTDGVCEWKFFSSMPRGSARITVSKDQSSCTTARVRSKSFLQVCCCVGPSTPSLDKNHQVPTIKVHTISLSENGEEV

[1] = male mice, 165 mg/kg PO; cited from earlier work

Substance: mitragynine
- Activation of α2AR-Gαs(short) (α2AR; Figure S1): did not activate α2AR–Gαs; also recorded: no effect
- Activation of the seven Gαi/o-protein subtypes coupled to α2AR (α2AR; concentrations up to 30 μM): did not activate any of the seven Gαi/o-protein subtypes
- Activation of Gαq or Gα11 via α2ARs (α2AR; data not shown): no effect
- Kb (α2AR; read-out: Kb, antagonist, αi1, α2AR-Gαi1, antagonism of clonidine, Gaddum-Schild): 5.65 µM
- EC50, αgust (α2AR; α2AR-Gαgust): inactive
- EC50, αi2 (α2AR; α2AR-Gαi2): inactive
- EC50, αi3 (α2AR; α2AR-Gαi3): inactive
- EC50, αoA (α2AR; α2AR-GαoA): inactive
- EC50, αoB (α2AR; α2AR-GαoB): inactive
- EC50, αz (α2AR; α2AR-Gαz): inactive
- Activation of Gαi/o subtypes coupled to α2BRs (human α2BRs): no significant activity
- Effect on forskolin-induced cAMP, rat α2AR in HEK293 (rat α2AR): no significant functional effects
- EC50 (α1AR; read-out: EC50, α11, α1AR-Gα11): 3.16 µM
- EC50 (α1AR; read-out: EC50 at α1AR-Gα11 (abstract), partial agonist): ~3 µM
- Emax as percent of clonidine's maximum response, α11 (α1AR; α1AR-Gα11): 27%
- EC50, αq (α1AR; α1AR-Gαq): inactive
- Peak brain concentration [1]: approximately 35 μg/g of wet brain tissue and ~88 μM

From publication PMC12679550 (ACS Chemical Neuroscience, 2025)
